Values joined by “and” are separate entries in the source; they are usually repeats but may differ in a detail not shown here. Identical values can stand only once.
Tests used:
[1] = AMXT 1501 level in tumor biopsy of a melanoma patient; details: male, human, in vivo
in vivo [2] = details: BALB/c, mouse, 2.5 mg/kg
in vivo [3] = details: male, Th-MYCN, mouse
Procedure: Male Th-MYCN mice, approximately 5-6 weeks of age, with spontaneous neuroblastoma tumor development commenced treatment according to Table 6.1 when tumors were approximately 5 mm in size. […] Time point: three treatments, cull 24 hours after last treatment in the morning.
Sample Preparation. Animals were euthanized on the morning of the 4th day, after three days of treatment and shaved, and then the carcasses were frozen. Tissues stored at −80° C. were placed inside the cryostat. The temperature of the cryostat was maintained around −20° C. and −40° C. 20-am tissue sections in the sagittal plane going through the left eye were obtained for each carcass. Tissue sections were mounted directly on indium tin oxide (ITO) slides.
Tissue sections on ITO slides were placed in a desiccator for 15 minutes before matrix deposition. An image of the slides was then acquired with a scanner to synchronize positions of the tissue sections with the target of the laser.
Dilution series of the test items were prepared in water from the stock solutions. […] A spot of pure solvent was added as a negative control. Slides were then placed in a desiccator for 15 minutes before MALDI matrix deposition. The control liver tissue consisted of a liver homogenate spiked with an olanzapine standard at 40 g/g of tissue. Sections of the liver homogenate were prepared and added on each ITO slide in order to monitor the signal of the FTICR through the different acquisitions and thus validate the comparison between slides.
For AMXT 1501, 2,5-dihydroxybenzoic acid (DHB) at 40 mg/ml in 1:1 MeOH/H2O with 1% trifluoroacetic acid (TFA) and 25 nM of ^13C4-AMXT 1501 was sprayed on the samples with an automatic sprayer (TM-Sprayer, HTX-Imaging).
The mass spectrometry imaging (MSI) acquisitions were performed using the parameters in Table 6.2 with a data reduction parameter set at 95%. MSI data were acquired and analyzed with FlexImaging 4.1 (Bruker Daltonics), Data Analysis 4.0 (Bruker Daltonics) and Multimaging™ 1.2.2 (ImaBioTech).
Intensity scales representing the molecular signal were adjusted for each image to discriminate the noise from the molecular signal but also to give the best visualization of the signal across the sections. […] Convolution step was performed on the original images using a normalized uniform kernel, which averages the values around a position. The kernel size was manually optimized for the analysis, minimizing the background noise. Based on the MSI data set on the tissue sections and the dilution series, the quantitation of the test items was performed with the IS approach. A correlation between the calibration curve and the signal obtained on the tissues was performed in order to determine the concentration of the test items per histological structure in g/g of tissue and μM.

spermine = assay: MALDI-FTICR imaging quantitation of PD marker spermine in whole-body sections of Th-MYCN mice; format: in vivo, mouse; details: for Quantitation of spermine in the whole-body section: Th-MYCN mice, one value per animal; for spermine in lung: group average; for spermine level in tumor, comparison of groups: mouse, in vivo; for Spermine concentration in tumor, Value / Spermine concentration in tumor, Average: raw determination, 96 h; for Spermine concentration in tumor, Value: individual Th-MYCN mice; for Spermine concentration in tumor, Average: treatment group average; for spermine in eye: vehicle 17.6 μM
Procedure: (§1) The lower limit of detection based on the calibration curve using labeled spermidine was 0.80 μg/g, while for spermine it was 1.10 μg/g.

four tumor cell lines = assay: In vitro tumor cell growth inhibition by AMXT 1501; format: cell-based; details: equivalent of 51 nM
From the text: See Burns, M. R., et al., J Med Chem 52, 1983-1993 (2009), the entire content of which is incorporated herein by reference.

[4] = Clinical safety and tolerability, dose-limiting toxicities (NCT03536728); format: in vivo
From the text: Clinical Trial Outline. […] All solid tumor types are eligible for the trial. […] DFMO was delivered orally twice daily in gel capsules.
These DLTs involved vomiting, diarrhea and nausea, and inferred a potential dual drug targeting of the gastrointestinal (GI) tract in these patients. One patient experienced severe dehydration, requiring hospitalization. A similar observation was made in dogs in Aminex's 28-day toxicological testing. […] The clinical observations and the data obtained in dog studies, together, support the hypothesis that combined oral drug dosing levels and DFMO targeting of the GI tract are causing the intolerance.
In cohorts before Part 2, Cohort 4, 14 adults were treated at 1,200 mg or higher of AMXT 1501 daily, either once daily or BID, with no DLTs. A total of 18 patients were treated at 800 mg AMXT 1501 or higher daily with no DLTs. These patients included a couple of adult patients where Cmax values above 1,000 ng/mL AMXT 1501 plasma levels were observed, again with no DLTs observed.

spermidine = assay: MALDI-FTICR imaging quantitation of PD marker spermidine in whole-body sections of Th-MYCN mice; format: in vivo, mouse; details: for Quantitation of spermidine in the whole-body section: Th-MYCN mice, one value per animal; for spermidine level in tumor, comparison of groups: mouse, in vivo; for Spermidine concentration in tumor, Values / Spermidine concentration in tumor, Average: raw determination, 96 h; for Spermidine concentration in tumor, Values: individual Th-MYCN mice; for Spermidine concentration in tumor, Average: treatment group average; for spermidine in eye: vehicle 9.14 μM
Procedure: as §1

[5] = mouse, in vivo
[6] = Water solubility, bioavailability and Biopharmaceutics Classification System class; format: physicochemical
From the text: Interim data for the pharmacokinetic (PK) behavior of both agents in human subjects has been generated.

NCI 60-cell line panel = details: used up to 5 mM, any cell line tested; cited from earlier work

CCCCCCCCCCCCCCCC(=O)NCCCC[C@@H](N)C(=O)NCCCNCCCCNCCCN [AMXT 1501, D-lys(palmitoyl)-spermine]
Kp [1]: 14.6
AUC (in vivo [2]; plasma, sc): 8270 ng·h/mL
AUC(0-inf) (in vivo [2]; plasma, sc): 8890 ng·h/mL
Cmax (in vivo [2]; plasma, sc): 978 ng/mL
Kp (in vivo [2]; tumor and plasma, sc): 15.5
Kp at 72 h (in vivo [2]; tumor and plasma, sc): 894
Kp (in vivo [2]; tumor and plasma, subcutaneous): 18
concentration at 72 h (in vivo [2]; tumor, subcutaneous): ~1000 ng/mL
concentration at 96 h (in vivo [3]; brown fat, sc, 2.5 mg/kg): 8330 ng/g
concentration at 96 h (in vivo [3]; cardiac blood, sc, 2.5 mg/kg): 8370 ng/g
concentration at 96 h (in vivo [3]; eye, sc, 2.5 mg/kg): 9300 ng/g
concentration at 96 h (in vivo [3]; intestine contents, sc, 2.5 mg/kg): 8470 ng/g
concentration at 96 h (in vivo [3]; intestine wall, sc, 2.5 mg/kg): 9000 ng/g
concentration at 96 h (in vivo [3]; intestine wall, subcutaneous, 2.5 mg/kg): 11400 ng/g
concentration at 96 h (in vivo [3]; kidney, sc, 2.5 mg/kg): 5640 ng/g
concentration at 96 h (in vivo [3]; kidney, subcutaneous, 2.5 mg/kg): 12100 ng/g
concentration at 96 h (in vivo [3]; liver, sc, 2.5 mg/kg): 8870 ng/g
concentration at 96 h (in vivo [3]; liver, subcutaneous, 2.5 mg/kg): 9530 ng/g
concentration at 96 h (in vivo [3]; lung, sc, 2.5 mg/kg): 14500 ng/g
concentration at 96 h (in vivo [3]; lung, subcutaneous, 2.5 mg/kg): 17000 ng/g
concentration at 96 h (in vivo [3]; myocardium, sc, 2.5 mg/kg): 8440 ng/g
concentration at 96 h (in vivo [3]; myocardium, subcutaneous, 2.5 mg/kg): 9590 ng/g
concentration at 24 h (in vivo [3]; organs (range across organs), subcutaneous, 2.5 mg/kg): 3360 ng/g to 17000 ng/g and 5.9 µM to 29.9 µM
concentration at 24 h (in vivo [3]; organs, range from intestine contents to lung, subcutaneous, 2.5 mg/kg): 3360 to 17000 ng/g
concentration at 96 h (in vivo [3]; pancreas, sc, 2.5 mg/kg): 8430 ng/g
concentration at 96 h (in vivo [3]; pancreas, subcutaneous, 2.5 mg/kg): 8540 ng/g
concentration at 96 h (in vivo [3]; spleen, subcutaneous, 2.5 mg/kg): 12900 ng/g
concentration at 96 h (in vivo [3]; stomach contents, sc, 2.5 mg/kg): 8800 ng/g
concentration at 96 h (in vivo [3]; stomach contents, subcutaneous, 2.5 mg/kg): 8480 ng/g
concentration at 96 h (in vivo [3]; stomach wall, sc, 2.5 mg/kg): 8550 ng/g
concentration at 96 h (in vivo [3]; stomach wall, subcutaneous, 2.5 mg/kg): 8810 ng/g
concentration at 96 h (in vivo [3]; testis, sc, 2.5 mg/kg): 9160 ng/g
concentration at 96 h (in vivo [3]; testis, subcutaneous, 2.5 mg/kg): 9820 ng/g
concentration at 96 h (in vivo [3]; thymus, sc, 2.5 mg/kg): 10700 ng/g
concentration at 96 h (in vivo [3]; thymus, subcutaneous, 2.5 mg/kg): 13900 ng/g
concentration at 96 h (in vivo [3]; tumor, sc, 2.5 mg/kg): 10000 ng/g
concentration at 24 h (in vivo [3]; tumor, subcutaneous): 12.7 µM
concentration at 24 h (in vivo [3]; tumor, subcutaneous, 2.5 mg/kg): 7230 ng/mL and 10000 ng/g and 17.6 µM
Quantitation of spermine in the whole-body section (spermine; Eye): 4.19 µM and 5.03 µM
spermine in lung (spermine): low
spermine level in tumor, comparison of groups (spermine): lowest levels
Spermine concentration in tumor, Value (spermine): BLOD
Spermine concentration in tumor, Average (spermine): BLOD
spermine in eye (spermine): around 5 μM
EC50 expressed per tissue weight (four tumor cell lines): 0.029 µg/g
EC50 (four tumor cell lines; read-out: EC50 as equivalent plasma concentration): 0.028 µg/mL
dose-limiting toxicities ([4]; 14 adults at 1,200 mg or higher of AMXT 1501 daily, QD or BID, cohorts before Part 2 Cohort 4): no DLTs
dose-limiting toxicities ([4]; 18 patients at 800 mg AMXT 1501 or higher daily): no DLTs
Quantitation of spermidine in the whole-body section (spermidine; Eye): 3.21 µM
Quantitation of spermidine in the whole-body section (spermidine; Intestine contents): 6.36 µM and 9.59 µM
Quantitation of spermidine in the whole-body section (spermidine; Stomach contents): 2.05 µM and 0.00 µM
Quantitation of spermidine in the whole-body section (spermidine; Tumor): 1.32 µM
Quantitation of spermidine in the whole-body section (spermidine; White fat): 5.26 µM
spermidine level in tumor, comparison of groups (spermidine): lowest levels
Spermidine concentration in tumor, Values (spermidine): BLOD and 1.32 μM
Spermidine concentration in tumor, Average (spermidine): 1.32 µM
spermidine in eye (spermidine): 3 µM
effect of DFMO on AMXT 1501 tumor retention [5]: no effect
tumor AUC, AMXT 1501 [5]: 152,000 hr*ng/mL
tumor AUC0-∞, AMXT 1501 ([5]; sc, 2.5 mg/kg): 138,000 hr*ng/mL

NCCCC(N)(C(=O)O)C(F)F (stereo not drawn) [DFMO, difluoromethylornithine]
water solubility [6]: high water solubility
Quantitation of spermine in the whole-body section (spermine; Eye): 16.03 µM and 8.07 µM
Quantitation of spermine in the whole-body section (spermine; Intestine contents): 2.46 µM
Quantitation of spermine in the whole-body section (spermine; Intestine wall): 3.44 µM
Quantitation of spermine in the whole-body section (spermine; Kidney): 4.69 µM
Quantitation of spermine in the whole-body section (spermine; Liver): 2.14 µM
Quantitation of spermine in the whole-body section (spermine; Lung): 4.78 µM and 7.91 µM
Quantitation of spermine in the whole-body section (spermine; Myocardium): BLOQ
Quantitation of spermine in the whole-body section (spermine; Stomach contents): 0.00 µM
Quantitation of spermine in the whole-body section (spermine; Stomach wall): BLOQ
Quantitation of spermine in the whole-body section (spermine; Testis): 7.40 µM
Quantitation of spermine in the whole-body section (spermine; Thymas): BLOQ
Quantitation of spermine in the whole-body section (spermine; Tumor): 6.03 µM
spermine in lung (spermine): 6.35 µM
spermine level in tumor, comparison of groups (spermine): highest levels
Spermine concentration in tumor, Value (spermine): BLOD and 6.03 μM
Spermine concentration in tumor, Average (spermine): 6.03 µM
spermine in eye (spermine): 12 µM
growth inhibitory effect (NCI 60-cell line panel): no growth inhibitory effect
Quantitation of spermidine in the whole-body section (spermidine; Brain): 1.86 µM
Quantitation of spermidine in the whole-body section (spermidine; Brown fat): 3.80 µM
Quantitation of spermidine in the whole-body section (spermidine; Cardiac blood): 0.00 µM
Quantitation of spermidine in the whole-body section (spermidine; Eye): 6.11 µM and 5.24 µM
Quantitation of spermidine in the whole-body section (spermidine; Intestine contents): 43.17 µM and 5.61 µM
Quantitation of spermidine in the whole-body section (spermidine; Intestine wall): 4.56 µM
Quantitation of spermidine in the whole-body section (spermidine; Kidney): 1.35 µM
Quantitation of spermidine in the whole-body section (spermidine; Liver): 6.67 µM
Quantitation of spermidine in the whole-body section (spermidine; Lung): 4.53 µM and 2.64 µM
Quantitation of spermidine in the whole-body section (spermidine; Stomach wall): 1.13 µM
Quantitation of spermidine in the whole-body section (spermidine; Testis): 1.97 µM
Quantitation of spermidine in the whole-body section (spermidine; Thymus): 6.00 µM
Quantitation of spermidine in the whole-body section (spermidine; Tumor): 5.39 µM
spermidine level in tumor, comparison of groups (spermidine): highest levels
Spermidine concentration in tumor, Values (spermidine): BLOD and 5.39 μM
Spermidine concentration in tumor, Average (spermidine): 5.39 µM
spermidine in eye (spermidine): 6 µM
